Measured values taken from patent US9133207B2, “Tetrandrine derivatives with substituted 5-carbon, preparation method and use thereof” (Hangzhou Bensheng Pharmaceutical Co., Ltd., priority 2011, dated 2015).
In brackets after ≈: the same amount, converted by molar mass.

Columns and labels:
[1] = system: H9 (acute lymphoblastic leukemia, ALL); assay: Leukemia cell growth inhibition, MTT, 72 h (Example 5); type: cell-based, human; conditions: Homo sapiens; 72 h, MTT
Method in brief: (§1)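 An MTT read-out of viable cell concentration follows 72 h incubation (37° C, 5% CO2) of 6000 cells/well in 10% FBS-supplemented 1640 medium with the 5-substituted derivatives at varying concentrations.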

[2] = system: Jurkat (acute lymphoblastic leukemia, ALL); assay: as above; type: cell-based, human; conditions: Homo sapiens, Jurkat; 72 h, MTT
Method in brief: as §1

[3] = system: K562/adr (drug-resistant, chronic myeloid leukemia, CML); assay: as above; type: cell-based, human; conditions: Homo sapiens, K562/Adr; 72 h, MTT
Method in brief: as §1

[4] = system: Kasumi-1 (acute myeloid leukemia M2 type, AML-M2); assay: as above; type: cell-based, human; conditions: Homo sapiens, Kasumi 1
Method in brief: as §1

[5] = system: NB4 (acute promyelocytic leukemia, AML); assay: as above; type: cell-based, human; conditions: Homo sapiens; 72 h, MTT
Method in brief: as §1

[6] = system: RPMI8226 (multiple myeloma); assay: Multiple myeloma cell growth inhibition, MTT, 72 h (Example 6); type: cell-based, human; conditions: Homo sapiens, RPMI-8226; 72 h, MTT, RPMI8226
Method in brief: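 Viability was read by MTT after 72 h of compound exposure at 37 °C, 5% CO2. Each well held 6000 RPMI8226 cells in 1640 medium containing 10% fetal bovine serum, with derivatives added at various concentrations.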

[7] = system: CaES-17 (esophageal cancer cell); assay: Solid tumor cell growth inhibition, MTT, 72 h (Example 7); type: cell-based, human; conditions: Homo sapiens, CaEs17; 72 h, MTT, CAES-17
Method in brief: (§2)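 4000 cells/well; DMEM high glucose + 10% FBS; 37 °C, 5% CO2; 24 h pre-culture; tetrandrine derivatives, varied conc., 72 h; MTT readout; viability % vs untreated control = 100%.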

[8] = system: Hep-2 (laryngeal carcinoma); assay: as above; type: cell-based, human; conditions: Homo sapiens; 72 h, MTT, Hep 2
Method in brief: as §2

[9] = system: MG63 (osteosarcoma); assay: as above; type: cell-based, human; conditions: Homo sapiens; 72 h, MTT, MG-63
Method in brief: as §2

[10] = system: PANC-1 (pancreatic cancer); assay: as above; type: cell-based, human; conditions: Homo sapiens; 72 h, MTT, PANC-1
Method in brief: as §2

[11] = system: PC-3 (prostate cancer); assay: as above; type: cell-based, human; conditions: for IC50 / IC90: Homo sapiens, 72 h, MTT, PC-3
Method in brief: as §2

[12] = system: A549 (human lung cancer); assay: as above; type: cell-based; conditions: for IC50 / IC90: Homo sapiens, 72 h, MTT, A549
Method in brief: as §2

[13] = system: Becap37 (human breast cancer cell); assay: as above; type: cell-based; conditions: Homo sapiens; 72 h, MTT, Becap-37
Method in brief: as §2

[14] = system: CNE (nasopharyngeal carcinoma cell); assay: as above; type: cell-based; conditions: Homo sapiens
Method in brief: as §2

[15] = system: Hela (human cervical cancer cell); assay: as above; type: cell-based; conditions: Homo sapiens; 72 h, MTT, Hela
Method in brief: as §2

[16] = system: Huh7 (human liver cancer cell); assay: as above; type: cell-based; conditions: Homo sapiens; 72 h, MTT, Huh-7
Method in brief: as §2

[17] = system: MGC 803 (human gastric cancer cell); assay: as above; type: cell-based; conditions: Homo sapiens
Method in brief: as §2

[18] = system: RKO (human colon adenocarcinoma cell); assay: as above; type: cell-based; conditions: Homo sapiens; 72 h, MTT, RKO
Method in brief: as §2

[19] = system: SK-OV-3 (ovarian cancer cell); assay: as above; type: cell-based; conditions: Homo sapiens
Method in brief: as §2

[20] = system: U87 MG (malignant glioma cell); assay: as above; type: cell-based; conditions: Homo sapiens, U-87 MG
Method in brief: as §2

| IC50 [1] [mg/L] | IC90 [1] [mg/L] | IC50 [2] [mg/L] | IC90 [2] [mg/L] | IC50 [3] [mg/L] | IC90 [3] [mg/L] | IC50 [4] [mg/L] | IC90 [4] [mg/L] | IC50 [5] [mg/L] | IC90 [5] [mg/L] | IC50 [6] [mg/L] | IC90 [6] [mg/L] | IC50 [7] [mg/L] | IC90 [7] [mg/L] | IC50 [9] [mg/L] | IC90 [9] [mg/L] | IC50 [10] [mg/L] | IC90 [10] [mg/L] | IC50 [11] [mg/L] | IC90 [11] [mg/L] | Structure (SMILES) | other results |
| --- | --- | --- | --- | --- | --- | --- | --- | --- | --- | --- | --- | --- | --- | --- | --- | --- | --- | --- | --- | --- | --- |
| 2.53 (≈ 3.39 µM) | 7.29 (≈ 9.76 µM) | 2.52 (≈ 3.37 µM) | 8.03 (≈ 10.8 µM) | 3.06 (≈ 4.1 µM) | 16 (≈ 21.4 µM) | 3.15 (≈ 4.22 µM) | 8.98 (≈ 12 µM) | 1.4 (≈ 1.87 µM) | 2 (≈ 2.68 µM) | 0.54 (≈ 0.723 µM) | 3.14 (≈ 4.2 µM) | 5.36 (≈ 7.18 µM) | 29.9 (≈ 40 µM) | 4.5 (≈ 6.03 µM) | 8.8 (≈ 11.8 µM) | 15.8 (≈ 21.1 µM) | > 16 | 4.11 (≈ 5.5 µM) | 7.84 (≈ 10.5 µM) | COc1ccc2cc1Oc1ccc(cc1)C[C@H]1c3cc(c(OC)cc3CCN1C)Oc1c(OC)c(OC)c(COC(=O)c3ccco3)c3c1[C@H](C2)N(C)CC3 [BS-TE-216] | IC50 [8]: 5.42 mg/L (≈ 7.26 µM); IC90 [8]: 16 mg/L (≈ 21.4 µM); IC50 [12]: 8.6 mg/L (≈ 11.5 µM); IC90 [12]: > 16 mg/L; IC50 [13]: 5.8 mg/L (≈ 7.77 µM); IC90 [13]: 13 mg/L (≈ 17.4 µM); IC50 [14]: 3.86 mg/L (≈ 5.17 µM); IC90 [14]: 13.3 mg/L (≈ 17.8 µM); IC50 [15]: 3.82 mg/L (≈ 5.11 µM); IC90 [15]: 10.8 mg/L (≈ 14.4 µM); IC50 [16]: 2.66 mg/L (≈ 3.56 µM); IC90 [16]: 4.71 mg/L (≈ 6.31 µM); IC50 [17]: 2.51 mg/L (≈ 3.36 µM); IC90 [17]: 4 mg/L (≈ 5.36 µM); IC50 [18]: 2.21 mg/L (≈ 2.96 µM); IC90 [18]: 4.67 mg/L (≈ 6.25 µM); IC50 [19]: 7 mg/L (≈ 9.37 µM); IC90 [19]: > 16 mg/L; IC50 [20]: 1.24 mg/L (≈ 1.66 µM); IC90 [20]: 3.74 mg/L (≈ 5.01 µM) |
| 4.86 (≈ 6.37 µM) | 7.6 (≈ 9.96 µM) | 4.64 (≈ 6.08 µM) | 10.9 (≈ 14.3 µM) | 2.18 (≈ 2.86 µM) | 8.89 (≈ 11.7 µM) | 4.92 (≈ 6.45 µM) | 15.5 (≈ 20.3 µM) | 2.6 (≈ 3.41 µM) | 4 (≈ 5.24 µM) | 0.87 (≈ 1.14 µM) | 5.13 (≈ 6.72 µM) | 8.69 (≈ 11.4 µM) | 27 (≈ 35.4 µM) | 6.2 (≈ 8.13 µM) | 10.4 (≈ 13.6 µM) | 5.11 (≈ 6.7 µM) | 15 (≈ 19.7 µM) | 7.08 (≈ 9.28 µM) | 9 (≈ 11.8 µM) | COc1ccc2cc1Oc1ccc(cc1)C[C@H]1c3cc(c(OC)cc3CCN1C)Oc1c(OC)c(OC)c(COC(=O)c3cccs3)c3c1[C@H](C2)N(C)CC3 [BS-TE-215] | IC50 [8]: 9.9 mg/L (≈ 13 µM); IC90 [8]: 22.2 mg/L (≈ 29.1 µM); IC50 [12]: 11.9 mg/L (≈ 15.6 µM); IC90 [12]: > 16 mg/L; IC50 [13]: 8.3 mg/L (≈ 10.9 µM); IC90 [13]: 15 mg/L (≈ 19.7 µM); IC50 [14]: 6.97 mg/L (≈ 9.14 µM); IC90 [14]: 12.2 mg/L (≈ 16 µM); IC50 [15]: 6.52 mg/L (≈ 8.55 µM); IC90 [15]: 13 mg/L (≈ 17.1 µM); IC50 [16]: 3.54 mg/L (≈ 4.64 µM); IC90 [16]: 9.62 mg/L (≈ 12.6 µM); IC50 [17]: 5.78 mg/L (≈ 7.58 µM); IC90 [17]: 8 mg/L (≈ 10.5 µM); IC50 [18]: 6.04 mg/L (≈ 7.92 µM); IC90 [18]: 9.22 mg/L (≈ 12.1 µM); IC50 [19]: 7.5 mg/L (≈ 9.83 µM); IC90 [19]: > 16 mg/L; IC50 [20]: 3.14 mg/L (≈ 4.12 µM); IC90 [20]: 8 mg/L (≈ 10.5 µM) |
| 0.7 (≈ 0.992 µM) | 1.44 (≈ 2.04 µM) | 1.35 (≈ 1.91 µM) | 4.96 (≈ 7.03 µM) | 0.44 (≈ 0.623 µM) | 7.2 (≈ 10.2 µM) | 0.52 (≈ 0.737 µM) | 3.11 (≈ 4.41 µM) | 0.29 (≈ 0.411 µM) | 2 (≈ 2.83 µM) | 0.006 (≈ 0.0085 µM) | 0.42 (≈ 0.595 µM) | 1.1 (≈ 1.56 µM) | 17 (≈ 24 µM) | 0.74 (≈ 1.05 µM) | 2.05 (≈ 2.9 µM) | 3.72 (≈ 5.27 µM) | 13.4 (≈ 19 µM) | 1.56 (≈ 2.21 µM) | 4.9 (≈ 6.94 µM) | COc1ccc2cc1Oc1ccc(cc1)C[C@H]1c3cc(c(OC)cc3CCN1C)Oc1c(OC)c(OC)c(CN3CCCC3)c3c1[C@H](C2)N(C)CC3 [BS-TE-305] | anti-PC-3 activity increase over tetrandrine ([11]; compared with tetrandrine): ~4 fold; IC50 [12]: 1 mg/L (≈ 1.42 µM); IC90 [12]: 5.25 mg/L (≈ 7.44 µM); anti-A549 activity increase over tetrandrine ([12]; compared with tetrandrine): ~3 fold; IC50 [13]: 1.44 mg/L (≈ 2.04 µM); IC90 [13]: 6.24 mg/L (≈ 8.84 µM); IC50 [16]: 1.28 mg/L (≈ 1.81 µM); IC90 [16]: 2.3 mg/L (≈ 3.26 µM); IC50 [17]: 1 mg/L (≈ 1.42 µM); IC90 [17]: 10 mg/L (≈ 14.2 µM); IC50 [18]: 0.66 mg/L (≈ 0.935 µM); IC90 [18]: 1.65 mg/L (≈ 2.34 µM) |
